What was measured:
[1] = test system: peripheral blood monocytes; experiment: Ex vivo uptake of fluorescent Aβ42 by peripheral blood monocytes from adjuvanted mice; type: in vivo, C57BL/6 mice; conditions: i.m. injection; AS01B mouse full dose, CRX601 2 μg dose
Source text: To begin to examine the function of the increase of monocytes in the peripheral blood, we examined the capacity of those monocytes to uptake Aβ42 in a test tube. In order to measure that phagocytic activity, we have used fluorescent HiLyteFluo Aβ42 (Anaspec Inc).
We examined the capacity of monocytes to uptake Aβ42 in a test tube. In order to measure that phagocytic activity we have used fluorescent HiLyteFluo Aβ42 (Anaspec Inc).
Preparation of cells: Peripheral blood was drawn from C57BL/6 mice via cardiac puncture with lithium-heparin as anticoagulant, 24-Hour after injection of the adjuvants used herein. Red blood cell lysis was performed twice on pooled blood with Ammonium Chloride-based Buffer (Sigma, Steinheim, Germany) and cells were counted with the EasyCount™ System (Immunicon). […]
Samples were acquired on a flow cytometer (BD FACSCanto II) and data analyzed with the FACSDiva software (BD Biosciences).
Monocytes were identified by their Side/Forward scatter properties, excluding debris and gated as CD3-/CD45R/B220-/Ly-6G-/NK1.1-(Lineage-)/CD11b+ cells. Aβ uptake was assessed by reporting the percentage and Mean Fluorescence Intensity (GeoMean) of positive HiLyte fluor488 Aβ1-42 cells among gated monocytes.

monomeric Aβ = experiment: Immunoblot of monomeric Aβ in brain protein fractions; type: in vivo, mice; conditions: anti Aβ1-16 antibody, vs PBS
Method: Proteins from hemi-forebrains were extracted using a modified method of the procedure published by Lesné et al (Lesne et al., 2006). All manipulations were done on ice to minimize protein degradation. One hemi-forebrain was placed in a 1 ml syringe with a 20 G needle. 500 l of buffer A (50 mM Tris-HCl pH 7.6, 0.01% NP-40, 150 mM NaCl, 2 mM EDTA, 0.1% SDS, 1 mM phenylmethylsulfonyl fluoride (PMSF), protease inhibitor cocktail) were added and 10 up and down were made to homogenize the tissue, followed by a 5 minutes centrifugation at 3 000 RPM at 4° C. The supernatant (extracellular proteins enriched fraction) was then collected and frozen at −80° C. […] Protein concentration of each fraction was determined using the Quantipro BCA assay kit (Sigma) according to the manufacturer protocol.
For total Aβ detection, 10-30 μg of extracellular, cytoplasmic and membrane protein fractions were separated on a precast 10-20% SDS polyacrylamide Tris-Tricine gel (Bio-Rad). Separated proteins were then transferred onto polyvinylidene fluoride (PVDF) membranes (PerkinElmer Life and Analytical Sciences) and detected by Western blotting. […]
Quantification was done by determining integrative density of the bands using a gel imaging system (scanner Agfa Arcus II; NIHImage J software version 1.32j) and background values were removed. […] Results are expressed as mean±SEM. […]

Row | Compound | Aβ42 uptake by monocytes compared to PBS group [1] | monomeric Aβ in extra-cellular enriched fractions from brains (monomeric Aβ)
1 | CCCCCCCCCCC[C@H](CC(=O)N[C@H]1[C@H](OC[C@H](NC(=O)C[C@@H](CCCCCCCCCCC)OCCCCCCCCCC)C(=O)O)O[C@H](CO)[C@@H](OP(=O)(O)O)[C@@H]1OC(=O)C[C@@H](CCCCCCCCCCC)OCCCCCCCCCC)OCCCCCCCCCC [CRX601] | higher amount | 
2 | 3-O-desacyl-4′-monophosphoryl lipid A [3D MPL] |  | reduction

From patent US20130216614A1, “IMMUNOGENIC COMPOSITIONS AND METHODS FOR TREATING NUEROLOGIC DISORDERS” (Glaxosmithkline Biologicals S.A., priority 2010, published 2013)
